ChEMBL document CHEMBL4765403, “Augmentation of the antitumor effects of PARP inhibitors in triple-negative breast cancer via degradation by hydrophobic tagging modulation” (Eur J Med Chem, 2020)
Calls of active or inactive are those of the source. The calls are words filed in the database; no cut-off is given here.

Legend:
[1] = molecular target: Poly [ADP-ribose] polymerase 1 (Homo sapiens) (UniProt P09874); assay: Induction of PARP1 degradation in triple-negative human MDA-MB-231 cells assessed as fold change in PARP1 protein expression at 2.5 uM incubated for 48 hrs by Western blot analysis relative to control; format: cell-based
[2] = molecular target: Poly [ADP-ribose] polymerase 1 (Homo sapiens) (UniProt P09874); assay: Induction of PARP1 degradation in triple negative human MDA-MB-231 cells assessed as fold change in PARP1 protein expression at 5 uM incubated for 48 hrs by Western blot analysis relative to control; format: cell-based
[3] = molecular target: Poly [ADP-ribose] polymerase 1 (Homo sapiens) (UniProt P09874); assay: Induction of PARP1 degradation in triple-negative human MDA-MB-231 cells assessed as fold change in PARP1 protein expression at 10 uM incubated for 48 hrs by Western blot analysis relative to control; format: cell-based
MDA-MB-231 [4] = assay: Cytotoxicity against triple-negative human MDA-MB-231 cells assessed as reduction in cell viability measured after 48 hrs by CCK8 assay; format: functional, cell-based; details: MDA-MB-231, 48 h
MDA-MB-231 [5] = assay: Cytotoxicity against human MDA-MB-231 cells assessed as reduction in cell viability measured after 96 hrs by CCK8 assay; format: functional, cell-based; details: MDA-MB-231, 96 h
MDA-MB-231 [6] = assay: Induction of endoplasmic reticulum stress in human MDA-MB-231 cells assessed as upregulation of CHOP protein expression at 5 uM incubated for 48 to 72 hrs by western blot analysis; format: functional, cell-based; details: time 48-72 hrs
MDA-MB-231 [7] = assay: Induction of endoplasmic reticulum stress in human MDA-MB-231 cells assessed as upregulation of XBP-1s protein expression at 5 uM incubated for 48 to 72 hrs by western blot analysis; format: functional, cell-based; details: time 48-72 hrs
MDA-MB-231 [8] = assay: Induction of autophagy in human MDA-MB-231 cells assessed as upregulation of LC3B protein expression at 5 uM incubated for 48 to 72 hrs by western blot analysis; format: functional, cell-based; details: time 48-72 hrs

Chain of Poly [ADP-ribose] polymerase 1 (Homo sapiens) (P09874 whole entry): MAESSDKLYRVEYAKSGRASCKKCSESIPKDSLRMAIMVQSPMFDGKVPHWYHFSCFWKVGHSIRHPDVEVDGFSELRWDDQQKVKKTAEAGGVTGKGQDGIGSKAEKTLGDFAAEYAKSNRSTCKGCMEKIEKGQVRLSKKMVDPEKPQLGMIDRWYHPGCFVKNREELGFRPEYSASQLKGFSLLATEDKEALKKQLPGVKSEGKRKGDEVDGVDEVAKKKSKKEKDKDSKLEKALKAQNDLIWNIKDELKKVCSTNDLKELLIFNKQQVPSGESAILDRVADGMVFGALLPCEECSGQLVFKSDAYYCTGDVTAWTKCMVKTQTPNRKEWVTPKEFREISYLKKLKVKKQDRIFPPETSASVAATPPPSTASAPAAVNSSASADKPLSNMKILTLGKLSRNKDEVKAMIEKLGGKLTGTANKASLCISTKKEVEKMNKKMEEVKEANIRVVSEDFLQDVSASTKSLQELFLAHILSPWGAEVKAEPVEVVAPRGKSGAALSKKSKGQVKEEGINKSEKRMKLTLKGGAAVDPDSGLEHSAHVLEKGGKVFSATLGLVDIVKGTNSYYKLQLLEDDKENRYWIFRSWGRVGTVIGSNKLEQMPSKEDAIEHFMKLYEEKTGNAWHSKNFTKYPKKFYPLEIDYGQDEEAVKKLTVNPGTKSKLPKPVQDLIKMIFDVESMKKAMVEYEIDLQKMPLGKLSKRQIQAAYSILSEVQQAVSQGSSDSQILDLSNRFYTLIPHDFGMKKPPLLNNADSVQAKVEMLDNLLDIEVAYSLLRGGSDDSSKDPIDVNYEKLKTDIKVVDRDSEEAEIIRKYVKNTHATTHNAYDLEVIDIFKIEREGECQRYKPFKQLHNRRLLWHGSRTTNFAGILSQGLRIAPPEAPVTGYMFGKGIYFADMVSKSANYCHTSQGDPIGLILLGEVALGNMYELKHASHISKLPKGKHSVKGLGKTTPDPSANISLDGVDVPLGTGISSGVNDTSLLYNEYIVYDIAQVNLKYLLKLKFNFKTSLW

| SMILES | fold change (FC) [1] | fold change (FC) [2] | fold change (FC) [3] | IC50 (MDA-MB-231 [4]) | IC50 (MDA-MB-231 [5]) | Activity (MDA-MB-231 [6]) | Activity (MDA-MB-231 [7]) | Activity (MDA-MB-231 [8]) |
| --- | --- | --- | --- | --- | --- | --- | --- | --- |
| O=C(CC12CC3CC(CC(C3)C1)C2)N1CCN(C(=O)c2cc(Cc3n[nH]c(=O)c4ccccc34)ccc2F)CC1 | 0.9 | 0.7 | 0.8 |  |  |  |  |  |
| O=C(NCCN1CCN(C(=O)c2cc(Cc3n[nH]c(=O)c4ccccc34)ccc2F)CC1)C(C1CCCCC1)C1CCCCC1 | 0.9 | 0.9 | 0.9 |  |  |  |  |  |
| CC(C)Cc1ccc([C@H](C)C(=O)NCCN2CCN(C(=O)c3cc(Cc4n[nH]c(=O)c5ccccc45)ccc3F)CC2)cc1 | 0.9 | 0.8 | 0.7 |  |  |  |  |  |
| O=C(CC12CC3CC(CC(C3)C1)C2)NCCCCN1CCN(C(=O)c2cc(Cc3n[nH]c(=O)c4ccccc34)ccc2F)CC1 | 1.1 | 1.2 | 1.1 |  |  |  |  |  |
| CC(C)Cc1ccc([C@H](C)C(=O)N2CCN(C(=O)c3cc(Cc4n[nH]c(=O)c5ccccc45)ccc3F)CC2)cc1 | 0.8 | 1 | 0.8 |  |  |  |  |  |
| O=C(NCCCCN1CCN(C(=O)c2cc(Cc3n[nH]c(=O)c4ccccc34)ccc2F)CC1)C(C1CCCCC1)C1CCCCC1 | 1.1 | 0.8 | 1.2 |  |  |  |  |  |
| O=C(c1cc(Cc2n[nH]c(=O)c3ccccc23)ccc1F)N1CCN(C(=O)C(C2CCCCC2)C2CCCCC2)CC1 | 0.6 | 0.7 | 0.7 |  |  |  |  |  |
| O=C(c1cc(Cc2n[nH]c(=O)c3ccccc23)ccc1F)N1CCN(C(=O)C2CC2)CC1 [OLAPARIB] |  |  |  |  | 32.4 µM | inactive | inactive | inactive |
| c1ccc2c(c1)Cc1ccccc1-2 [FLUORENE] |  |  |  | > 50 µM |  |  |  |  |
| O=C(NCCCCCCN1CCN(C(=O)c2cc(Cc3n[nH]c(=O)c4ccccc34)ccc2F)CC1)C(C1CCCCC1)C1CCCCC1 | 0.9 | 0.8 | 0.3 | > 50 µM |  |  |  |  |
| O=C(CC12CC3CC(CC(C3)C1)C2)NCCCCCCN1CCN(C(=O)c2cc(Cc3n[nH]c(=O)c4ccccc34)ccc2F)CC1 | 0.9 | 1.2 | 0.8 |  |  |  |  |  |
| O=C(CC12CC3CC(CC(C3)C1)C2)NCCN1CCN(C(=O)c2cc(Cc3n[nH]c(=O)c4ccccc34)ccc2F)CC1 | 1.1 | 1.2 | 1.3 |  |  |  |  |  |

Continued, in another order:

| fold change (FC) [1] | fold change (FC) [2] | fold change (FC) [3] | SMILES | IC50 (MDA-MB-231 [4]) | IC50 (MDA-MB-231 [5]) | Activity (MDA-MB-231 [6]) | Activity (MDA-MB-231 [7]) | Activity (MDA-MB-231 [8]) |
| --- | --- | --- | --- | --- | --- | --- | --- | --- |
| 1 | 1 | 1.1 | O=C(c1cc(Cc2n[nH]c(=O)c3ccccc23)ccc1F)N1CCN(C(=O)C(c2ccccc2)c2ccccc2)CC1 |  |  |  |  |  |
| 0.9 | 1.2 | 1.7 | CC(C)Cc1ccc([C@H](C)C(=O)NCCCCN2CCN(C(=O)c3cc(Cc4n[nH]c(=O)c5ccccc45)ccc3F)CC2)cc1 |  |  |  |  |  |
| 0.5 | 0.5 | 0.4 | O=C(CC1c2ccccc2-c2ccccc21)NCCCCCCN1CCN(C(=O)c2cc(Cc3n[nH]c(=O)c4ccccc34)ccc2F)CC1 |  |  |  |  |  |
| 0.4 | 0.3 | 0.4 | O=C(CC1c2ccccc2-c2ccccc21)NCCN1CCN(C(=O)c2cc(Cc3n[nH]c(=O)c4ccccc34)ccc2F)CC1 | 26.2 µM |  |  |  |  |
| 1.4 | 1.6 | 1.2 | O=C(NCCCCN1CCN(C(=O)c2cc(Cc3n[nH]c(=O)c4ccccc34)ccc2F)CC1)C(c1ccccc1)c1ccccc1 |  |  |  |  |  |
| 1.4 | 1.5 | 1.3 | O=C(NCCCCCCN1CCN(C(=O)c2cc(Cc3n[nH]c(=O)c4ccccc34)ccc2F)CC1)C(c1ccccc1)c1ccccc1 |  |  |  |  |  |
| 0.5 | 0.5 | 0.5 | O=C(CC1c2ccccc2-c2ccccc21)NCCCCN1CCN(C(=O)c2cc(Cc3n[nH]c(=O)c4ccccc34)ccc2F)CC1 | > 50 µM |  |  |  |  |
| 1.3 | 1.1 | 1.3 | O=C(NCCN1CCN(C(=O)c2cc(Cc3n[nH]c(=O)c4ccccc34)ccc2F)CC1)C(c1ccccc1)c1ccccc1 |  |  |  |  |  |
| 1.2 | 0.7 | 0.3 | CC(C)Cc1ccc([C@H](C)C(=O)NCCCCCCN2CCN(C(=O)c3cc(Cc4n[nH]c(=O)c5ccccc45)ccc3F)CC2)cc1 | 15.9 µM |  |  |  |  |
